The nature of data set [1]: Cytotoxicity against golden hamster BSR-T7 cells assessed as reduction in cell viability measured after 18 to 24 hrs by MTT assay. The class given is cell-based, Mesocricetus auratus, BSR-T7/5.
Data set [2] has as its system Western equine encephalitis virus. Put plainly: Antiviral activity against Western equine encephalitis virus infected in BSR-T7 cells assessed as inhibition of viral genome replicon replication measured after 18 to 24 hrs by luciferase assay. In kind it is functional, organism-based. To be noted: BSR-T7/5.
Data set [3] is described as follows: Antiviral activity against FMV infected in human BE2C cells assessed as reduction in virus-induced cytopathicity at 25 uM relative to control.
Data set [4] in a line: Antiviral activity against FMV infected in human BE2C cells assessed as reduction in virus-induced cytopathicity at 5 uM relative to control.
Data set [5] in a line: Antiviral activity against FMV infected in human BE2C cells assessed as reduction in virus-induced cytopathicity by measuring cell viability at 5 uM (reference value: 19.6 +/-4%).
Data set [6] is described as follows: Antiviral activity against FMV infected in human BE2C cells assessed as reduction in virus-induced cytopathicity by measuring cell viability at 25 uM (reference value: 19.6 +/-4%).

`O=C(NCc1ccccc1)C1CCN(C(=O)c2cc3ccccc3n2Cc2ccc(Cl)cc2)CC1`: the CC50 in data set [1] (BSR-T7 cells, time 18-24 hrs) was above 100 µM. The IC50 in data set [2] amounted to 30.6 µM.
In the case of `O=C(NCCc1ccncc1)C1CCN(C(=O)c2cc3ccccc3n2Cc2ccc(Cl)cc2)CC1`, in data set [3], the “fold change (FC)” value is reported as 2.
Take `O=C(c1cc2ccccc2n1Cc1ccc(Cl)cc1)N1CCC(/C=C/CCc2ccncc2)CC1`: the half-maximal inhibitory concentration (IC50) in data set [2] was above 50 µM.
As to `Cc1cccc2cc(C(=O)N3CCC(C(=O)NCc4ccccc4)CC3)n(Cc3ccc(Cl)cc3)c12`, the CC50 in data set [1] (bsr-t7/5, time 18-24 hrs) is above 100 µM. In data set [2], the IC50 was 61 µM.
On the same counts, the results for `O=C(CC1CCN(C(=O)c2cc3ccccc3n2Cc2ccc(Cl)cc2)CC1)NCc1ccncc1` are 77.3 µM and 24.7 µM.
For `O=C(NCCCc1ccccc1)C1CCN(C(=O)c2cc3ccccc3n2Cc2ccc(Cl)cc2)CC1`, the CC50 in data set [1] (bsr-t7/5, time 18-24 hrs) is above 50 µM. Moreover, the IC50 in data set [2] was above 100 µM.
The corresponding values for `O=C(c1cc2ccccc2n1Cc1ccc(Cl)cc1)N1CCC(/C=C\CCc2ccncc2)CC1` are above 50 µM and above 50 µM.
The corresponding values for `O=C(c1cc2ccccc2n1Cc1ccc(Cl)cc1)N1CCC(C(=O)N2Cc3ccccc3C2)CC1` are above 100 µM and above 100 µM.
The corresponding values for `O=C(NCCc1ccncc1)C1=CCN(C(=O)c2cc3ccccc3n2Cc2ccc(Cl)cc2)CC1` are 74.2 µM and 3.9 µM.
For `O=C(NCC1CCc2ccccc21)C1CCN(C(=O)c2cc3ccccc3n2Cc2ccc(Cl)cc2)CC1` (stereo not drawn), the CC50 in data set [1] (bsr-t7/5, time 18-24 hrs) was above 100 µM. In addition, the IC50 in data set [2] turned out to be 7.1 µM.
With `Cc1c(C(=O)N2CCC(C(=O)NCc3ccccc3)CC2)n(Cc2ccc(Cl)cc2)c2ccccc12`, in data set [1] (bsr-t7/5, time 18-24 hrs), the CC50 is above 100 µM. The IC50 in data set [2] is above 100 µM.
For `O=C(c1cc2ccccc2n1Cc1ccc(Cl)cc1)N1CCC(C(=O)N2CCc3ccccc32)CC1`, the CC50 in data set [1] (bsr-t7/5, time 18-24 hrs) was above 100 µM. For the same molecule, the IC50 in data set [2] was above 100 µM.
`O=C(NCCc1ccncc1)[C@H]1[C@@H]2CCN(C(=O)c3cc4ccccc4n3Cc3ccc(Cl)cc3)C[C@@H]21`: the CC50 in data set [1] (bsr-t7/5, time 18-24 hrs) is above 100 µM. Besides, the IC50 in data set [2] was 24.6 µM.
The corresponding values for `O=C(NCCc1ccncc1)N1CCN(C(=O)c2cc3ccccc3n2Cc2ccc(Cl)cc2)CC1` are 78 µM and 24.4 µM.
Regarding `CN(CCc1ccncc1)C(=O)[C@@H]1C[C@H]2CC[C@@H](C1)N2C(=O)c1cc2ccccc2n1Cc1ccc(Cl)cc1`, the CC50 in data set [1] (bsr-t7/5, time 18-24 hrs) is 50.9 µM. Further, the IC50 in data set [2] was 0.96 µM.
As for `O=C(NCCc1ccncc1)C1CC2(C1)CN(C(=O)c1cc3ccccc3n1Cc1ccc(Cl)cc1)C2`, the CC50 in data set [1] (bsr-t7/5, time 18-24 hrs) amounted to 56.5 µM. For the same molecule, in data set [2], the IC50 was found to be 10.9 µM.
For the molecule `O=C(NCCc1ccncc1)C1CCCN(C(=O)c2cc3ccccc3n2Cc2ccc(Cl)cc2)CC1` (stereo not drawn), the cytotoxic concentration (CC50) in data set [1] (bsr-t7/5, time 18-24 hrs) came out at 41.1 µM. The IC50 in data set [2] is 0.49 µM. Also, in data set [4], the “fold change (FC)” value was found to be 2. In addition, the Activity in data set [5] stood at 36.1%; in data set [6], 22.9%.
Take `O=C(c1cc2ccccc2n1Cc1ccc(Cl)cc1)N1CCC(C(=O)N2CCC(c3ccccc3)C2)CC1` (stereo not drawn): the CC50 in data set [1] (bsr-t7/5, time 18-24 hrs) is above 100 µM. In data set [2], the IC50 was above 100 µM.
Take `O=C(CCc1ccncc1)NC1CCN(C(=O)c2cc3ccccc3n2Cc2ccc(Cl)cc2)CC1`: in data set [1] (bsr-t7/5, time 18-24 hrs), the CC50 is 66.7 µM. Moreover, in data set [2], the 50% inhibitory concentration (IC50) was found to be 17.6 µM.
The corresponding values for `O=C(NC1Cc2ccccc2C1)C1CCN(C(=O)c2cc3ccccc3n2Cc2ccc(Cl)cc2)CC1` are above 100 µM and above 100 µM.
`O=C(NCC1Cc2ccccc2C1)C1CCN(C(=O)c2cc3ccccc3n2Cc2ccc(Cl)cc2)CC1`: in data set [1] (bsr-t7/5, time 18-24 hrs), the CC50 was above 100 µM. Further, in data set [2], the IC50 is 0.53 µM.
The corresponding values for `O=C(c1cc2ccccc2n1Cc1ccc(Cl)cc1)N1CC[C@H]2C(=O)N(CCc3ccncc3)C[C@H]2C1` are 61 µM and 24.4 µM.
With `O=C(c1cc2ccccc2n1Cc1ccc(Cl)cc1)N1CCC(C(=O)N2CCCC2c2ccccc2)CC1` (stereo not drawn), in data set [1] (bsr-t7/5, time 18-24 hrs), the CC50 is above 100 µM. Further, the IC50 in data set [2] was above 100 µM.
On to `O=C(NC1CCc2ccccc21)C1CCN(C(=O)c2cc3ccccc3n2Cc2ccc(Cl)cc2)CC1` (stereo not drawn), for which, in data set [1] (bsr-t7/5, time 18-24 hrs), the CC50 is above 100 µM. In data set [2], the IC50 is above 100 µM.
For the molecule `CC1(C(=O)NCCc2ccncc2)CCN(C(=O)c2cc3ccccc3n2Cc2ccc(Cl)cc2)CC1`, in data set [1] (bsr-t7/5, time 18-24 hrs), the CC50 was above 50 µM. For the same molecule, in data set [2], the concentration for half-maximal inhibition (IC50) is above 50 µM.
With `CC(NC(=O)C1CCN(C(=O)c2cc3ccccc3n2Cc2ccc(Cl)cc2)CC1)C1Cc2ccccc2C1` (racemic), the CC50 in data set [1] (bsr-t7/5, time 18-24 hrs) was above 100 µM. Further, the IC50 in data set [2] was 1.7 µM.
